Structures can show the parent of a compound that is named as a salt.

Test [1] concerns visceromotor response (VMR) elicited by colorectal distension (CRD). As to the kind of experiment: visceromotor response (VMR) elicited by colorectal distension (CRD) in conscious rats. In kind it is in vivo, Sprague-Dawley rats. Particulars: for VMR to noxious CRD: CRD 80 mmHg, naive rats; for effect on VMR to CRD: 1-100 nmol, hydrochloride. The method, then:
Adult male Sprague-Dawley rats (250-350g, Harlan, San Diego, CA) served as animal subjects. Rats were housed 5-6 per cage, allowed free access to food and water, and were maintained on a 12 h light-dark cycle (lights on between 06.00 and 18.00 h).
Rats were deeply anesthetized with pentobarbital sodium (45 mg/kg, Nembutal, Abbott Labs, North Chicago, IL) administered intraperitoneally. […] The electrode leads were tunneled subcutaneously and exteriorized at the nape of the neck for future access. Some animals were also implanted with venous catheters in the femoral vein to enable i.v. administration of drugs. For intrathecal (i.t.) drug administration, an i.t. catheter (PE-10 tubing, 8.5 cm long) was inserted through the dura overlying the atlanto-occipital junction and threaded to the level of the lumbar enlargement (Yaksh and Rudy, 1976). The venous or i.t. catheter was surgically anchored to musculature at the back of the neck, and externalized with the electrode leads. The wounds were closed in layers with 4-0 silk. Rats were housed singly and allowed to recuperate for at least 3-5 days prior to testing.
The stimulus employed has been previously described (Gebhart and Sengupta, 1996). Briefly, the descending colon and rectum were distended by pressure-controlled air inflation of a 6 cm long flexible latex balloon tied around a flexible tube (Tygon). The balloon was lubricated (Surgilube, E. Fougera and Co., Melville, NY), inserted intra-anally and anchored by taping the balloon catheter to the base of the tail. […] The behavioral response quantified was the visceromotor response, a contraction of the abdominal and hindlimb (Ness and Gebhart, 1988). EMG activity in the external oblique musculature was quantified by computing the average amplitude (Dr. Alfred Bayati Astra Hässle). Each distension trial lasted 60 s and EMG activity was quantified 20 s before distension (baseline), during distension, and 20 s after distension. The increase in EMG amplitude during distension over baseline was recorded as the response.
On the day of testing, animals were briefly anesthetized with Metophane®, and the balloon was inserted and secured in place as described above. Rats were allowed to recover for 30-40 min, following which two stable control responses to CRD (80 mmHg, 20 s, 4 min interstimulus interval) were obtained.
Drugs were administered i.v. into the femoral vein through the indwelling catheter. All doses were administered in a volume of up to 230 µl followed by a flush with 100 µl of preservative-free saline over a period of 30s. Dose response curves were generated using a cumulative dosing paradigm. The first i.v. injection was made 2 min after the second control response. Subsequent doses were injected 8 min apart, thus allowing two distensions after each dose. Data are reported as the average response to the two distensions.
In one group of animals, memantine was administered to the lumbar enlargement through the indwelling i.t. catheter with the aid of a […] injection needle connected to a 25 ul Hamilton syringe by a length of polyethylene tubing (PE-10). All doses were administered in a volume of 5 µl followed by a flush with 10 µl of preservative-free saline over a period of 1 min. The progress of the injection was continuously monitored by following the movement of an air bubble in the tubing. The dose response curve was generated using a cumulative dosing paradigm. The first i.t. injection was made 2 min after the second control response. Subsequent doses were injected 8 min apart, thus allowing two distensions after each dose. Data are reported as the average response to the two distensions. […]

In test [2] the test system is pelvic afferent nerve activity. As to the kind of experiment: pelvic afferent nerve activity elicited by colorectal distension in anesthetized rats. The note with it: intra-arterial, cumulative 1, 3, 6 and 10 mg/kg; CRD 80 mm Hg. In kind it is in vivo, Sprague-Dawley rats. The method, then:
General procedures: Male Sprague-Dawley rats 425-450 g) were anesthetized initially with sodium pentobarbital (40-45 mg/kg ip) and maintained with α-chloralose (60 mg kg^-1 h^-1). The trachea was cannulated for mechanical ventilation with room air. The left common carotid artery was cannulated for recording blood pressure. The femoral artery and vein were catheterized for injection of drug and anesthetic, respectively. Rats were paralyzed with pancuronium bromide (0.3 mg/kg i.v.) and ventilated with room air (55-60 strokes/min and 3-4 ml stroke volume). Supplemental doses of pancuronium bromide (0.2-0.3 mg kg^-1 h^-1) were given to maintain paralysis during the course of experiment. The mean arterial blood pressure was monitored continuously and maintained at >80 mm Hg with supplemental intravenous injection of 5% dextrose in saline given in a bolus of 1 to 1.5 ml as required. […]
Recordings of afferent nerve action potentials: The S1 dorsal root was identified and decentralized at its entry to the spinal cord. […] Electrical activity of single units was recorded monopolarly by placing a teased fiber over one arm of a bipolar silver-silver chloride electrode; a fine strand of connective tissue was placed across the other pole of the electrode. […]

Where [3] appears, read: i.v., 1-10 mg/kg, conscious rats (figure legends).
[4] abbreviates: i.v., most effective dose tested 60 mg/kg.
The mark [5] stands for this setting: intrathecal (i.t.), up to a dose of 300nmol, conscious rats.

Regarding `CCNC(Cc1cnccn1)c1ccccc1` (single isomer, unassigned; (+)) [Compound 3, (+) N-ethyl-1-phenyl-2-(3-pyrazine)ethanamine hydrochloride], the “effect on viscero-motor responses (VMR) to noxious colorectal distension” value (“effect on viscero-motor responses (VMR)” for short) in test [1] (setting [3]) is “dose-dependently (1-10 mg/kg) attenuated VMR”. In addition, the “VMR to noxious CRD” value in test [1] (setting [4]) is on record as 5 % of control.

Take `N=C(N)c1cccc(CC(N)c2ccccc2)n1` (stereo not shown) [Compound 1, 2-amidino-6-(2-amino-2-phenyl)-ethylpyridine trihydrochloride]: the “effect on viscero-motor responses (VMR)” value is reported as “dose-dependently (1-10 mg/kg) attenuated VMR” in test [1] (setting [3]) and “None of the three compounds attenuated VMR” in test [1] (setting [5]). Also, the “VMR to noxious CRD” value in test [1] (i.v., most effective dose tested (dose not given)) is listed as 13 % of control.

For `Cl.NCC(=O)NC(Cc1ccccc1)c1ccccc1` (stereo not shown) [Compound 2, 2-amino-N-(1,2-diphenylethyl)acetamide hydrochloride], the “effect on viscero-motor responses (VMR)” value in test [1] (setting [3]) is reported as “dose-dependently (1-10 mg/kg) attenuated VMR”; in test [1] (setting [5]), “None of the three compounds attenuated VMR”. Also, the “VMR to noxious CRD” value in test [1] (setting [4]) is recorded as 40 % of control.

Turning to `Cl.NC(Cn1cccn1)c1ccccc1` (stereo not drawn) [Compound 4, alpha-phenyl-1H-pyrazole-1-ethanamine hydrochloride], the “effect on viscero-motor responses (VMR)” value in test [1] (setting [3]) is on record as “dose-dependently (1-10 mg/kg) attenuated VMR”; in test [1] (setting [5]) it was “None of the three compounds attenuated VMR”. Besides, the “VMR to noxious CRD” value in test [1] (i.v., most effective dose tested 100 mg/kg) is on record as 10 % of control.

Take `CC12CC3CC(C)(C1)CC(N)(C3)C2` [memantine, memantine hydrochloride, reference compound]: in test [1] (setting [3]), the “effect on viscero-motor responses (VMR)” value is listed as “dose-dependantly attenuate VMR”. Besides, in test [1] (i.v., most effective dose tested 10 mg/kg), the “VMR to noxious CRD” value is listed as 28 % of control. Further, the “effect on VMR to CRD” value in test [1] (intrathecal (i.t.), conscious rats) is recorded as “without effect”; in test [1] (intrathecal (i.t.), conscious rats, listed as Memantine), “did not attenuate VMR”. Moreover, the “pelvic nerve activity elicited by distention of the colon” value in test [2] is reported as “reduced, in a dose-dependent fashion”.
